Measured values published in PMC8899577, “Targeting the anti-apoptotic Bcl-2 family proteins: machine learning virtual screening and biological evaluation of new small molecules” (Theranostics, 2022).

Key:
[1] = test system: HCT116 colon cancer cells; test: Cell viability by MTT, HCT116; type: cell-based, Human; settings: 20 µM for 72 h, vs control
Method: (§1) The effect of compounds on cell viability was performed by measuring 3-[4,5-dimethylthiazol-2-yl]-2,5-diphenyltetrazolium bromide inner salt (MTT, Sigma-Aldrich) dye absorbance (solid tumor cells) or by quantization of ATP present in metabolically active cells using CellTiter-Glo® Luminescent (Promega, Fitchburg, Wisconsin, USA) (hematologic cells) following manifacturer's protocol. To evaluate the cell colony-forming ability, cell suspension from different samples was seeded into 60-mm Petri dishes. After 10 days, colonies were stained with 2% methylene blue in 95% ethanol and counted (1 colony > 50 cells). The surviving fractions were calculated as the ratio of absolute survival of the treated sample/survival of DMSO-treated control sample.
Figure 4 Analysis of the effect of IS20 and IS21 on cell viability, clonogenic ability and tumor sphere formation in cancer cells. […] (B) Representative images and quantification of clonogenic ability evaluated in M14 and H1299 cells treated with IS20 or IS21 (20 μM for 72 h). […] (C) Quantification of tumor sphere formation of M14 and H1299 cells treated with IS20 or IS21 (20 μM for 72 h). […] (A-C) Data are reported as mean ± SD of three independent experiments. p-values were calculated between control (Ctrl) and treated cells, ** p < 0.001 and *** p < 0.0001.

Bcl-xL = Bcl-xL (Homo sapiens, UniProt Q07817); test: SPR binding to immobilized Bcl-xL; settings: 25 °C, 2-site fit, highest affinity site
Method: FastStep experiments were performed with a SensiQ Pioneer apparatus. Bcl-2 immobilization on COOH5 sensorchips was carried out essentially as previously reported, [40]. All the experiments were carried out at 25 °C in degassed HEPES 20 mM, pH 7.4, NaCl 150 mM, 0.005% surfactant P20 + 2% DMSO (HBSP2%D). […] Each sensorgram is the average of at least three experiments. The decrease in Response Units (RU) after 165 s indicates analyte dissociation from the immobilized Bcl-2 upon HSBP2%D buffer injection. Control SPR experiments were carried out measuring sensorgrams on Bcl-xL and Mcl-1 (ligands) immobilized on COOH5 sensorchips as previously reported at 25 °C in degassed HBSP2%D buffer. […] Each sensorgram is the average of at least three experiments. The decrease in RU after 180 s indicates analyte dissociation from the immobilized ligands upon HSBP2%D buffer injection. Kinetic evaluation of the sensorgrams was carried out using the Qdat 4.0 program; best fittings were obtained with 2 sites and indicated in red (reported KD values refer to dissociation constants of the highest affinity site).
Each sensorgram is the average of at least three experiments.

HL60 cells = test: Cell viability by CellTiterGlo, HL60; type: cell-based; settings: Homo sapiens, HL-60; 24 h, 5 to 50 µM
Method: as §1
Figure 1 Cytotoxic screening of putative inhibitors of Bcl-2 anti-apoptotic proteins. (A) Flow cytometric quantification of propidium iodide exclusion assay in HL60 cells treated with the 49 putative Bcl-2 family inhibitors (50 μM, 72 h). (B) Analysis of cell viability by CellTiterGlo assay in HL60 cells treated for 24 h with concentrations ranging from 5 to 50 μM of the indicated compounds. (C-D) Analysis of cell viability by MTT assay in (C) M14 and (D) Sbcl2 melanoma cell lines treated for 72 h with concentrations ranging from 5 to 50 μM of the indicated compounds. […]

U937 xenografts = test: In vivo tumor growth, U937 xenografts; set-up: species or system athymic CD1 nude mice
Method: (§2) All procedures involving mice and their care were authorized and certified by the decree no. 67/97A of the Italian Minister of Health and protocol 2560/97 of the Rome Health Service Unit (ASL RMB). Regina Elena National Cancer Institute approved all the procedures involving animals. 5 x 10^6 U937 (in 50% Matrigel, Corning, NY, USA) or A375 cells were subcutaneously injected in the right flank of 6-8-week-old female immunodeficient athymic CD1 nude mice. IS21 was dissolved in 10% DMSO, 30% PEG400 and 60% NaCl (vehicle). Intraperitoneal treatment of vehicle or IS21 (8 mice for each group) every 24 h started when tumors reached the palpability (6 days for U937 and 7 days for A375 cells). […] Animals were observed daily, weighted two times/week and tumor volume (mm^3) calculated as length × width^2 × π/6. At the end of the treatment the tumors were collected and weighed.
Based on pharmacokinetic analysis, we next evaluated the effect of IS21 on in vivo tumor growth of leukemic and melanoma derived xenografts. To this aim, U937 were injected subcutaneously and treated for two weeks with vehicle or with IS21 (70 mg/kg or 100 mg/kg, 5 days/week).
Figure 9 Analysis in vivo of the effect of IS21 on both leukemia and melanoma models. Analysis of in vivo tumor growth in nude mice injected with (A) U937 and (B) A375 cells and treated with vehicle or with IS21 at the indicated concentrations for (A) two or (B) three weeks. Experiments were repeated twice. * p < 0.05, *** p < 0.0002, **** p < 0.0001.

A375 melanoma xenografts = test: In vivo tumor growth, A375 xenografts; settings: i.p. 100 mg/kg, 5 days/week
Method: as §2
In particular, mice injected with A375 melanoma cells were treated with vehicle or with IS21 (100 mg/kg, 5 days/week) for three weeks.
Experiments were repeated
426 twice. 4 animals/group. * p < 0.01, ** p < 0.001, *** p < 0.0001. (B) Representative images of
427 explanted tumors of two independent experiments. The scale bar represents 1 cm. (C) Analysis of
(D) Anal ysis of mice weight after the in vivo ex periment perform ed
430 as reported in (A). ( A,C, D) D ata are report ed as mean ± SD of two indep endent ex periments. […]

Sequence of Bcl-xL (Q07817 whole entry): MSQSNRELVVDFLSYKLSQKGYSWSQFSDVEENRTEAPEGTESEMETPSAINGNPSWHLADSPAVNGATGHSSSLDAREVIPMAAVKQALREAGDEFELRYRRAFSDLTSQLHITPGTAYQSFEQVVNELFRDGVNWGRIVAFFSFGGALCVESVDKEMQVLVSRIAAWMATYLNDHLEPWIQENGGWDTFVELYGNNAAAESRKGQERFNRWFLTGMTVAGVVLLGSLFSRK

Row | SMILES | cell viability HCT116 [1] | Kd (Bcl-xL) | IC50 (HL60 cells) | delay of tumor growth (U937 xenografts; U937, 100 mg/kg until day 22, compared with control or 70 mg/kg) | growth of U937 xenografts (U937 xenografts; i.p. 70 mg/kg or 100 mg/kg, 5 days/week, two weeks) | day after cell injection from which U937 xenograft growth is significantly reduced (U937 xenografts; i.p. 70 mg/kg, 5 days/week, two weeks) | day after cell injection from which U937 xenograft growth is significantly reduced (U937 xenografts; i.p. 100 mg/kg, 5 days/week, two weeks) | day after cell injection from which A375 tumor growth is reduced (A375 melanoma xenografts; three weeks) | in vivo tumor growth of A375 (A375 melanoma xenografts; three weeks) | tolerability of treatment (weight loss, diet consumption, postural and behavioral changes) (A375 melanoma xenografts; tumor-bearing nude mice)
1 | CCCCOc1ccc(C2/C(=C(\O)c3ccc4c(c3)CC(C)O4)C(=O)C(=O)N2c2nnc(SCc3ccc(Cl)cc3)s2)cc1OCC (stereo not shown) [IS20] | not significantly perturbed | 0.42 ± 0.09 µM | 10.9 to 34 µM |  |  |  |  |  |  | 
2 | CCCCCOc1ccc(C2/C(=C(\O)c3ccc4c(c3)CC(C)O4)C(=O)C(=O)N2c2nnc(SCc3ccc(Cl)cc3)s2)cc1OCC (stereo not shown) [IS21] | not significantly perturbed | 0.51 ± 0.17 µM | 10.9 to 34 µM | about 11 days | reduced significantly | 19 days | 16 days | 22 days | strongly reduced | highly tolerated
